A word on the mass density: it is the mass of a sample divided by its volume. As usually defined, the vapor or sublimation pressure is the equilibrium pressure above the liquid or solid. By refractive index is commonly meant a measure of how strongly the sample bends light.

± gives the expanded uncertainty stated by the source.

The conditions of data set [1]: Liquid; for mass density: 298.15 K, 101.33 kPa.
Data set [2] in a line: refractive index (Na D-line) (dimensionless). Particulars: 298.15 K; 101.33 kPa; Liquid.

For the compound `Clc1ccccc1` [chlorobenzene], the mass density in data set [1] is 1100.9 ± 2.9 kg/m3. Further, the “vapor or sublimation pressure” value in data set [1] (402.95 K) came out at 95.8 ± 5 kPa. For the same compound, in data set [2], the refractive index was 1.5219 ± 0.0016.
Regarding `Cc1cccc(C)c1` [1,3-dimethylbenzene], the mass density in data set [1] was found to be 860.1 ± 2.1 kg/m3. Besides, in data set [1] (409.35 K), the “vapor or sublimation pressure” value was found to be 95.8 ± 5 kPa. The refractive index in data set [2] was 1.4946 ± 0.0016.
On to `Cc1ccc(C)cc1` [1,4-dimethylbenzene], for which the mass density in data set [1] is 856.6 ± 2.1 kg/m3. Further, in data set [1] (409.35 K), the “vapor or sublimation pressure” value came to 95.8 ± 5 kPa. The refractive index in data set [2] came to 1.4933 ± 0.0016.
As to `CCO` [ethanol], the mass density in data set [1] is recorded as 784.9 ± 1.8 kg/m3. For the same compound, the “vapor or sublimation pressure” value in data set [1] (350.05 K) is recorded as 95.8 ± 5 kPa. For the same compound, in data set [2], the refractive index is 1.3594 ± 0.0016.
As for `CCCCCC` [hexane], the mass density in data set [1] was 654.8 ± 1.4 kg/m3. The “vapor or sublimation pressure” value in data set [1] (340.25 K) worked out at 95.8 ± 5 kPa. Besides, the refractive index in data set [2] came out at 1.3723 ± 0.0016.
For the compound `CC(C)CC(C)(C)C` [2,2,4-trimethylpentane], in data set [1], the mass density is 687.8 ± 1.5 kg/m3. Also, the “vapor or sublimation pressure” value in data set [1] (370.55 K) is on record as 95.8 ± 5 kPa. The refractive index in data set [2] was 1.3889 ± 0.0016.
On to `CC(C)(C)O` [2-methylpropan-2-ol], for which the mass density in data set [1] was determined as 781.2 ± 1.8 kg/m3. The “vapor or sublimation pressure” value in data set [1] (354.15 K) worked out at 95.8 ± 5 kPa. The refractive index in data set [2] turned out to be 1.3852 ± 0.0016.

(Values after the NIST ThermoML archive (doi:10.1016/j.jct.2005.04.006).)
